The values below come from US20240174690A1, “ANNULATED 2-AMINO-3-CYANO THIOPHENES AND DERIVATIVES FOR THE TREATMENT OF CANCER” (BOEHRINGER INGELHEIM INTERNATIONAL GMBH, priority 2021, published 2024).

Data set [1] concerns KRAS G12C-dependent Ba/F3 cells. As to the kind of experiment: Ba/F3 proliferation assay, KRAS G12C. It is filed as cell-based. The note with it: Mus musculus, BaF3, 72 h, AlamarBlue. In short, it runs like this: (§1)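 IL-3-independent Ba/F3 lines carrying retrovirally introduced KRAS G12C, G12D or G12V; puromycin withdrawn ~10 days before assay. Duplicate treatments, AlamarBlue fluorescence readout, curve-fit analysis.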

The subject of data set [2] is KRAS G12V-dependent Ba/F3 cells. As to the kind of experiment: Ba/F3 proliferation assay, KRAS G12V.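 Note: proliferation IC50 in KRAS G12V-dependent Ba/F3 cells read by AlamarBlue.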 The note with it: Mus musculus, BaF3, 72 h, AlamarBlue. The format is cell-based. An outline of the steps:
as §1

Data set [3] can be described thus: Metabolic (microsomal) stability assay, human liver microsomes (HLM). The note with it: predicted clearance as percent of liver blood flow, 1 μM. The format is in vitro ADME. An outline of the steps:
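LC-MS/MS tracked parent disappearance at 0, 5, 15, 30 and 60 min in NADPH-initiated incubations with 1 mg/mL human microsomal protein and 1 μM compound at 37°C, pH 7.5. First-order fits gave intrinsic clearance, which was scaled up and reported as % QH. NADPH-free controls were also run.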

The nature of data set [4]: Caco-2 assay (permeability PappAB, PappBA, efflux ratio). It is filed as in vitro ADME. The note with it: human, Caco-2, 10 μM test compound, pH 7.4; for Papp A→B at 90 min, 10 μM: apical to basolateral; for efflux ratio at 90 min, 10 μM: efflux ratio PappBA/PappAB, read-out: Caco ER. An outline of the steps: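 Bidirectional permeability (apical-to-basolateral and reverse) through polarized Caco-2 monolayers, BSA 0.25% on each side, 37 °C. Donor and receiver sampled at 0-90 min after 25-30 min preincubation, analysed by HPLC/MS/MS. Apparent permeabilities derived from transfer rate normalised to area and t=0 donor concentration; ER taken as PappBA over PappAB.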

The next data set concerns SK-CO-1 cells. As to the kind of experiment: SK-CO-1 CTG proliferation assay (120 h) (CRC, G12V). It is filed as cell-based. The note with it: Homo sapiens; SK-CO-1 cells (CRC, G12V), CTG 120 h. In short, it runs like this: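 Compound exposure lasted 120 h in KRAS G12V SK-CO-1 cells seeded overnight at 500 cells/well in 10% FCS EMEM. CellTiter-Glo RLU normalised to DMSO wells gave percent viability, and a four-parameter model fit yielded IC50.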

A word on the IC50: it is the concentration that inhibits the measured activity by half. A low value points to higher potency. As a reminder, the Papp A→B is how fast a substance crosses the layer from the apical side. In the case of `C[C@H](Oc1cc(N2CCNC[C@]23CCOC3)nc(-c2onc3c2CCC[C@@]32CCCc3sc(N)c(C#N)c32)n1)[C@@H]1CCCN1C` [I-12], the IC50 turned out to be 224 nM in data set [1], 343 nM in data set [2] and 710 nM in the data set on SK-CO-1 cells. Besides, the “HLM QH” value in data set [3] was 36%. Besides, in data set [4], the Papp A→B at 90 min, 10 μM came out at 0.5 ×10⁻⁶ cm/s. In addition, the efflux ratio at 90 min, 10 μM in data set [4] came out at 70.2.
Regarding `C[C@H](Oc1cc(N2CCNC[C@@]23CCOC3)nc(-c2onc3c2CCC[C@@]32CCCc3sc(N)c(C#N)c32)n1)[C@@H]1CCCN1C` [I-13], the IC50 in data set [1] was 1540 nM; in data set [2], 821 nM; in the data set on SK-CO-1 cells it was 2160 nM. Further, the “HLM QH” value in data set [3] is on record as less than 24%. Besides, the Papp A→B at 90 min, 10 μM in data set [4] was found to be 0.4 ×10⁻⁶ cm/s. In addition, the efflux ratio at 90 min, 10 μM in data set [4] turned out to be 49.8.
For the compound `C[C@H](Oc1cc(-n2cncn2)nc(-c2onc3c2CCC[C@@]32CCCc3sc(N)c(C#N)c32)n1)[C@@H]1CCCN1C` [I-18], the figures for the IC50 (in data set [1]; in data set [2]; in the data set on SK-CO-1 cells) were 11 nM, 8 nM and 236 nM, respectively. Moreover, the “HLM QH” value in data set [3] is listed as 48%. For the same compound, the Papp A→B at 90 min, 10 μM in data set [4] was found to be 17 ×10⁻⁶ cm/s. The efflux ratio at 90 min, 10 μM in data set [4] worked out at 1.2.
For the compound `C[C@H](Oc1cc(-n2cc(-c3cncs3)nn2)nc(-c2noc3c2CCC[C@@]32CCCc3sc(N)c(C#N)c32)n1)[C@@H]1CCCN1C` [II-125], the IC50 amounted to 17 nM in data set [1], 16 nM in data set [2] and 121 nM in the data set on SK-CO-1 cells. For the same compound, the “HLM QH” value in data set [3] is listed as less than 24%. Further, the efflux ratio at 90 min, 10 μM in data set [4] stood at 1.3.
As for `C[C@H](Oc1cc(-n2cnc(C(=O)N(C)C)c2)nc(-c2noc3c2CCC[C@@]32CCCc3sc(N)c(C#N)c32)n1)[C@@H]1CCCN1C` [II-126], the values for the IC50 (in data set [1]; in data set [2]; with SK-CO-1 cells) were 32 nM, 26 nM and 137 nM, respectively. The “HLM QH” value in data set [3] is on record as 25%. Further, the Papp A→B at 90 min, 10 μM in data set [4] worked out at 2 ×10⁻⁶ cm/s. Further, the efflux ratio at 90 min, 10 μM in data set [4] amounted to 11.
With `C[C@H](Oc1cc(-c2ccn([C@H]3CCOC3)n2)nc(-c2noc3c2CCC[C@@]32CCCc3sc(N)c(C#N)c32)n1)[C@@H]1CCCN1C` [II-127], the IC50 in data set [1] was 13 nM; in data set [2], 13 nM; in the data set with SK-CO-1 cells it was 90 nM. Also, in data set [3], the “HLM QH” value is recorded as less than 24%. The Papp A→B at 90 min, 10 μM in data set [4] is 5.9 ×10⁻⁶ cm/s. In addition, in data set [4], the efflux ratio at 90 min, 10 μM was 4.1.
On to `C[C@H](Oc1cc(-c2ccn(C[C@H]3CCOC3)n2)nc(-c2noc3c2CCC[C@@]32CCCc3sc(N)c(C#N)c32)n1)[C@@H]1CCCN1C` [II-129], for which the IC50 was found to be 11 nM in data set [1], 9 nM in data set [2] and 66 nM in the data set with SK-CO-1 cells. Further, in data set [3], the “HLM QH” value is given as less than 24%. In addition, in data set [4], the Papp A→B at 90 min, 10 μM stood at 4.2 ×10⁻⁶ cm/s. In addition, the efflux ratio at 90 min, 10 μM in data set [4] came to 5.2.
In the case of `C[C@H](Oc1cc(-n2ccc(-c3cnccn3)n2)nc(-c2noc3c2CCC[C@@]32CCCc3sc(N)c(C#N)c32)n1)[C@@H]1CCCN1C` [II-130], the IC50 in data set [1] was 6 nM; in data set [2], 6 nM; in the data set with SK-CO-1 cells, 29 nM. Further, the “HLM QH” value in data set [3] is less than 24%. The efflux ratio at 90 min, 10 μM in data set [4] was 1.4.
With `C[C@H](Oc1cc(-n2nccc2-c2ccncc2)nc(-c2noc3c2CCC[C@@]32CCCc3sc(N)c(C#N)c32)n1)[C@@H]1CCCN1C` [II-131], the values for the IC50 (in data set [1]; in data set [2]; in the data set on SK-CO-1 cells) were 16 nM, 19 nM and 90 nM, respectively. The “HLM QH” value in data set [3] is less than 24%. For the same compound, in data set [4], the efflux ratio at 90 min, 10 μM was determined as 0.9.
For the compound `C[C@H](Oc1cc(-n2cc(C(=O)N(C)C)nn2)nc(-c2noc3c2CCC[C@@]32CCCc3sc(N)c(C#N)c32)n1)[C@@H]1CCCN1C` [II-132], the IC50 in data set [1] was found to be 10 nM; in data set [2], 6 nM; in the data set on SK-CO-1 cells it was 18 nM. The “HLM QH” value in data set [3] was 36%. For the same compound, the Papp A→B at 90 min, 10 μM in data set [4] turned out to be 6.8 ×10⁻⁶ cm/s. Further, the efflux ratio at 90 min, 10 μM in data set [4] turned out to be 4.9.
Turning to `C[C@H](O)Cn1ncc(-c2cc(O[C@@H](C)[C@@H]3CCCN3C)nc(-c3noc4c3CCC[C@@]43CCCc4sc(N)c(C#N)c43)n2)n1` [II-134], the IC50 came out at 41 nM in data set [1], 28 nM in data set [2] and 225 nM in the data set with SK-CO-1 cells. The “HLM QH” value in data set [3] is listed as 34%. Besides, the Papp A→B at 90 min, 10 μM in data set [4] came to 4 ×10⁻⁶ cm/s. The efflux ratio at 90 min, 10 μM in data set [4] is 8.
`C[C@H](Oc1cc(-n2cc3c(n2)CCN(C)C3)nc(-c2noc3c2CCC[C@@]32CCCc3sc(N)c(C#N)c32)n1)[C@@H]1CCCN1C` [II-141]: the IC50 was found to be 134 nM in data set [1], 170 nM in data set [2] and 436 nM with SK-CO-1 cells. Further, the “HLM QH” value in data set [3] is given as 28%. The efflux ratio at 90 min, 10 μM in data set [4] was 7.9.
With `C[C@H](Oc1cc(N2CCOC2=O)nc(-c2noc3c2CCC[C@@]32CCCc3sc(N)c(C#N)c32)n1)[C@@H]1CCCN1C` [II-143], the IC50 in data set [1] stood at 5 nM; in data set [2], 2 nM; in the data set on SK-CO-1 cells, 9 nM. Moreover, the “HLM QH” value in data set [3] is given as 57%. Further, the Papp A→B at 90 min, 10 μM in data set [4] was 4.5 ×10⁻⁶ cm/s. In addition, the efflux ratio at 90 min, 10 μM in data set [4] came out at 7.3.
On to `C[C@H](Oc1cc(N2CCN(C)C3(COC3)C2)nc(-c2noc3c2CCC[C@@]32CCCc3sc(N)c(C#N)c32)n1)[C@@H]1C[C@@H](F)CN1C` [II-148], for which the IC50 in data set [1] was 99 nM; in data set [2], 162 nM; with SK-CO-1 cells, 779 nM. The “HLM QH” value in data set [3] is on record as 52%. Moreover, the apparent permeability from apical to basolateral (Papp A→B) at 90 min, 10 μM in data set [4] was 12 ×10⁻⁶ cm/s. The efflux ratio at 90 min, 10 μM in data set [4] was found to be 3.3.
As for `C[C@H](Oc1cc(N2CCN(C)C3(CC3)C2)nc(-c2noc3c2CCC[C@@]32CCCc3sc(N)c(C#N)c32)n1)[C@@H]1C[C@@H](F)CN1C` [II-149], the 50% inhibitory concentration (IC50) in data set [1] is 333 nM; in data set [2] it was 412 nM; with SK-CO-1 cells, 1980 nM. Also, the “HLM QH” value in data set [3] is 45%. Moreover, the efflux ratio at 90 min, 10 μM in data set [4] was found to be 1.2.
Regarding `C[C@H](Oc1cc(N2CCNC3(COC3)C2)nc(-c2noc3c2CCC[C@@]32CCCc3sc(N)c(C#N)c32)n1)[C@@H]1C[C@@H](F)CN1C` [II-150], the IC50 in data set [1] was 55 nM; in data set [2] it was 77 nM; with SK-CO-1 cells, 325 nM. The “HLM QH” value in data set [3] is recorded as 64%. In data set [4], the Papp A→B at 90 min, 10 μM came out at 2.5 ×10⁻⁶ cm/s. In addition, the efflux ratio at 90 min, 10 μM in data set [4] was found to be 11.6.
Take `C[C@H](Oc1cc(-n2cc3ccn([C@@H](C)c4ccccn4)c(=O)c3n2)nc(-c2noc3c2CCC[C@@]32CCCc3sc(N)c(C#N)c32)n1)[C@@H]1CCCN1C` [II-205]: the results for the IC50 (in data set [1]; in data set [2]; in the data set with SK-CO-1 cells) were 19 nM, 6 nM and 31 nM, respectively. Moreover, the “HLM QH” value in data set [3] is less than 24%.
For `[2H]C([2H])([2H])N1C[C@H](F)C[C@H]1[C@H](C)Oc1cc(N2CCN(C([2H])([2H])[2H])C3(CC3)C2)nc(-c2noc3c2CCC[C@@]32CCCc3sc(N)c(C#N)c32)n1` [II-207], in that order: 283 nM, 387 nM, 1260 nM and 40%.
For `CNC1CCN(c2cc(O[C@@H](C)[C@@H]3CCCN3C)nc(-c3noc4c3CCC[C@@]43CCCc4sc(N)c(C#N)c43)n2)CC1` [II-214], the IC50 amounted to 1900 nM in data set [1], 1360 nM in data set [2] and 5350 nM in the data set with SK-CO-1 cells. In addition, the “HLM QH” value in data set [3] was less than 24%.
